The subject of experiment [1] is MOLM-13 (carrying MLL-AF9). The experiment can be described thus: Inhibition of proliferation of human tumor cells (Alamar Blue, 7 days), MOLM-13. Format: cell-based. To be noted: Homo sapiens, MOLM-13 cells (carrying MLL-AF9), method calls the value GI50. An outline of the steps:
(§1)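 Cells seeded at 4,000/well (MV-4-11, MOLM-13) or 3,000/well (KG-1a) in serum-supplemented IMDM or RPMI-1640, 37°C, 5% CO2, then exposed to 3- or 4-fold compound dilutions in duplicate for 7 days. Alamar Blue fluorescence read; GI50 derived against Day 7 0.1% DMSO (high) and Day 0 (low) controls.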

Another experiment concerns the target T1, Menin-MLL (Homo sapiens, UniProt O00255).
T1 construct: His-Menin (M1-L615 end); purchased BIORTUS BP9210
T1 sequence (O00255 1-615 isoform O00255-1): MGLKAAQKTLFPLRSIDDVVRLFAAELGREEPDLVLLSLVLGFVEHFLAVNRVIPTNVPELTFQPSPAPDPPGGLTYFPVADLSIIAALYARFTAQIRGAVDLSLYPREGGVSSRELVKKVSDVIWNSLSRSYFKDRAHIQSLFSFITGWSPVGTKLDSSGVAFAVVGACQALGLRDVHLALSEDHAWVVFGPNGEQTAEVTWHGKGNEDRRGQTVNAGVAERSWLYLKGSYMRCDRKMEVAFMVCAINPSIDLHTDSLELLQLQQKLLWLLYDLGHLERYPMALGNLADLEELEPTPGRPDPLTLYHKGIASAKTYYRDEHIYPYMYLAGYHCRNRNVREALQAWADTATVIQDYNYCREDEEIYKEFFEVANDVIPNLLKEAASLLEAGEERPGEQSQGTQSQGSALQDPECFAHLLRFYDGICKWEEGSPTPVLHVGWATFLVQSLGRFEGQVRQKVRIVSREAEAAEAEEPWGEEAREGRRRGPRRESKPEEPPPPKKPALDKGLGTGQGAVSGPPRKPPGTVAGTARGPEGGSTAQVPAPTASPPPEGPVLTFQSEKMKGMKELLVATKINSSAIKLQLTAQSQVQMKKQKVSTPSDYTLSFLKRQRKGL
The experiment can be described thus: Inhibitory activity against Menin-MLL binding (fluorescence polarization). The settings on record: 150 nM His-Menin, 15 nM FITC-MLL, 25°C for 60 min. An outline of the steps: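 His-Menin (M1-L615, 150 nM) preincubated with compound 15 min at 25 °C in HEPES pH 7.5, 50 mM NaCl, 1 mM DTT, 0.01% BSA, then 15 nM FITC-MLL4-43 peptide added for 60 min at 25 °C. Fluorescence polarization read; IC50 from 4-parameter logistic fit, duplicates.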
(Fluorescence polarisation rises when a labelled molecule tumbles more slowly, as on binding a larger partner.)

In a further experiment the test system is KG-1a (wild-type MLL). The experiment can be described thus: Inhibition of proliferation of human tumor cells (Alamar Blue, 7 days), KG-1a control cell line. Format: cell-based. The settings on record: 168 h, KG-1a cells (wild-type MLL, control cell line), method calls the value GI50. The text has this:
Experimental Example 2: Evaluation of Inhibitory Activity of Compounds Against Proliferation of Human Tumor Cells
• Human acute lymphoblastic leukemia cells MV-4-11, purchased from American Type Culture Collection, Catalog Number: CRL-9591; • Human acute myeloid leukemia cells MOLM-13, purchased from COBIOER BIOSCIENCES CO., LTD, Catalog Number: CBP60678; • Human acute myeloid leukemia cells KG-1a, purchased from American Type Culture Collection, Catalog Number: CCL-246.1; • Inverted Microscope, purchased from Olympus Tokyo; • Countess™ Automated Cell Counter, purchased from Invitrogen, Model: C10281; and • Multilabel Reader, purchased from Bio-Tek, Model: Synergy HT.
MV-4-11 cells were cultured in an IMDM medium containing 10% fetal bovine serum, KG-a cells were cultured in an IMDM medium containing 20% fetal bovine serum, or MOLM-13 cells were cultured in an RPMI-1640 medium containing 20% fetal bovine serum, each supplemented with 100 U·mL^-1 penicillin and 100 µg·mL^-1 streptomycin. These cells were cultured at 37°C with 5% CO2. The suspensions of individual cell lines were prepared in their respective media and seeded into 96-well plates at a density of 4,000 cells/well for MV-4-11 and MOLM-13 cells, or 3,000 cells/well for KG-1a cells. On the day of the experiment, a compound stock solution was diluted in a 3-fold or 4-fold gradient using DMSO. Each gradient-diluted stock solution was then further diluted 250-fold with a complete medium to prepare a series of working solutions at different concentrations. Subsequently, 100 µL of working solution (containing a 2-fold concentration series of the test compound) was added to each well, with duplicate wells set up for each concentration.
Seven days after compound addition (on Day 7), an Alamar Blue assay reagent (MCE, HY-111391 / CS-0040317) was added to measure the fluorescence intensity in each well. Wells containing the cells in the growth medium supplemented with 0.1% DMSO (Day 7) served as high-read control wells. The readouts from the wells containing the cells in the growth medium supplemented with 0.1% DMSO on the day of compound addition (Day 0) served as low-reading control well. GraphPad Prism software was used to calculate the concentration required to inhibit 50% of cell proliferation (GI50), which serves as a cell proliferation inhibition activity index.
A general note: The colour change of resazurin is a common sign of viable cells or microbes.

The test system of experiment [2] is MV-4-11 (carrying MLL-AF4). The experiment can be described thus: Inhibition of proliferation of human tumor cells (Alamar Blue, 7 days), MV-4-11. Format: cell-based. To be noted: Homo sapiens, MV4-11, 168 h, MV-4-11 cells (carrying MLL-AF4), method calls the value GI50. In short, it runs like this:
as §1

Setting [3] is: Menin-MLL IC50, fluorescence polarization.
[4] abbreviates: fluorescence polarization, read-out: Menin-MLL IC50.

We go through 14 molecules from patent EP4782453A1 (Beyang Therapeutics Co., Ltd., priority 2023, dated 2025).

Molecules are shown by their SMILES. Like-named read-outs stand apart in the source and are kept apart here.

As to `CCS(=O)(=O)N[C@H]1CC[C@H](CN2CC(c3cc(-c4ccc(F)cc4C(=O)N4CCOC[C@H]4C)c4c(F)nc(C)n4c3)C2)CC1` [Example 145, N-[(1r,4r)-4-{[3-(1-fluoro-8-{4-fluoro-2-[(3R)-3-methylmorpholin-4-carbonyl]phenyl}-3-methylimidazo[1,5-a]pyridin-6-yl)azacyclobutan-1-yl]methyl}cyclohexyl]ethan-1-sulfonamide], the IC50 (commonly the concentration that gives 50% inhibition) in experiment [1] (MOLM-13, 168 h) was 29.5 nM; at Menin-MLL (setting [3]), 18 nM; in the experiment with KG-1a (wild-type MLL), 19000 nM; in experiment [2], 13 nM.

Consider `CCS(=O)(=O)N[C@H]1CC[C@H](CN2CC(c3cc(-c4ccc(F)cc4C(=O)N4[C@H](C)COC[C@H]4C)c4cnn(C)c4c3)C2)CC1` [Example 168], for which the IC50 stood at 104 nM in experiment [1] (MOLM-13, 168 h); 32.5 nM on Menin-MLL (setting [3]); 20000 nM in the experiment with KG-1a (wild-type MLL); 32 nM in experiment [2].

As for `CCN(C(=O)c1cc(F)ccc1-c1cc(C2CN(C(=O)C3NC4CCC3CC4)C2)cn2c(C)ncc12)C(C)C` [Example 90, N-ethyl-5-fluoro-2-(3-methyl-6-{1-[(1R,3S,4S)-2-azabicyclo[2.2.2]octan-3-carbonyl]azacyclobutan-3-yl}imidazo[1,5-a]pyridin-8-yl)-N-(isopropyl)benzamide], the IC50 stood at 99 nM in experiment [1] (MOLM-13, 168 h); 11 nM on Menin-MLL (setting [3]); 20000 nM in the experiment on KG-1a (wild-type MLL); 20 nM in experiment [2].

On to `CCN(C(=O)c1cc(F)ccc1-c1cc(N2CCC(NCc3ccc(-c4cc(OC)c(OC)nn4)cc3)CC2)cn2cncc12)C(C)C` [Example 19, 2-{6-[4-({[4-(5,6-dimethoxypyridazin-3-yl)phenyl]methyl}amino)piperidin-1-yl]imidazo[1,5-a]pyridin-8-yl}-N-ethyl-5-fluoro-N-isopropylbenzamide], for which the results for the 50% inhibitory concentration (IC50) (at Menin-MLL (setting [4]); with KG-1a (wild-type MLL); in experiment [2]) were 43.5 nM, 20000 nM and 49 nM, respectively.

Regarding `COCC1CN(CCC[C@H](C(C)C)N2CC(c3cc(-c4ccc(F)cc4C(=O)N4CCOC[C@H]4C)c4cnn(C)c4c3)C2)C1` [Example 183-2], the concentration for half-maximal inhibition (IC50) in experiment [1] (168 h) worked out at 39 nM; on Menin-MLL (setting [4]), 11.7 nM; in the experiment with KG-1a (wild-type MLL), 11000 nM; in experiment [2] it was 7.9 nM.

On to `Cc1cncc2c(-c3ccc(F)cc3C(=O)N3CCOC[C@H]3C)cc(CC3CN(CC4CCN(C(=O)C5CC5)CC4)C3)n12` [Example 286, (3R)-4-{2-[6-({1-[(1-cyclopropanecarbonylpiperidin-4-yl)methyl]azacyclobutan-3-yl}methyl)-4-methylpyrrolo[1,2-a]pyrazin-8-yl]-5-fluorobenzoyl}-3-methylmorpholine], for which the IC50 in experiment [1] (168 h) was 19 nM; at Menin-MLL (setting [4]) it was 3.5 nM; with KG-1a (wild-type MLL) it was 20000 nM; in experiment [2] it was 4.6 nM.

Take `CCN(C(=O)c1cc(F)ccc1-c1cc([C@H]2CC[C@H](NCc3ccc(-c4cc(OC)c(OC)nn4)cc3)CC2)cn2cncc12)C(C)C` [Example 18-2, N-ethyl-5-fluoro-N-(isopropyl)-2-{6-[(1r,4r)-4-({[4-(5,6-dimethoxypyridazin-3-yl)phenyl]methyl}amino)cyclohexyl]imidazo[1,5-a]pyridin-8-yl}benzamide]: the IC50 is 43 nM in experiment [1] (MOLM-13, 168 h); 5.5 nM at Menin-MLL (setting [3]); 6500 nM with KG-1a (wild-type MLL); 9.4 nM in experiment [2].

As for `CCN(C(=O)c1cc(F)ccc1-c1cc(C2CCN(C[C@H]3CC[C@H](NS(=O)(=O)CC)CC3)C2)cc2c1cnn2C)C(C)C` (stereo partly drawn) [Example 15, N-ethyl-5-fluoro-2-[1-methyl-6-(1-{[(1r,4r)-4-ethanesulfonamidocyclohexyl]methyl}pyrrolidin-3-yl)-1H-indazol-4-yl]-N-isopropylbenzamide], the values for the half-inhibitory concentration (IC50) (on Menin-MLL (setting [3]); in the experiment on KG-1a (wild-type MLL); in experiment [2]) were 11.5 nM, 17000 nM and 23 nM, respectively.

On to `Cc1ncc2c(-c3ccc(F)cc3C(=O)N(C(C)C)C3CC3)cc(N3CCN(C(=O)C4NC5CCC4CC5)CC3)cn12` [Example 72, N-cyclopropyl-5-fluoro-2-(3-methyl-6-{4-[(1R,3S,4S)-2-azabicyclo[2.2.2]octan-3-carbonyl]piperazin-1-yl}imidazo[1,5-a]pyridin-8-yl)-N-(isopropyl)benzamide], for which the IC50 was found to be 54 nM at Menin-MLL (setting [3]), 20000 nM in the experiment on KG-1a (wild-type MLL) and 57 nM in experiment [2].

Take `Cc1nc(F)c2c(-c3ccc(F)cc3C(=O)N3CCOC[C@H]3C)cc(C3CN([C@@H](C)C4CCN(C(=O)CC#N)CC4)C3)cn12` [Example 263-2]: the concentration for half-maximal inhibition (IC50) amounted to 13 nM in experiment [1] (168 h), 7 nM at Menin-MLL (setting [4]), 20000 nM in the experiment with KG-1a (wild-type MLL) and 5.3 nM in experiment [2].

With `CCN(C(=O)c1cc(F)ccc1-c1cc(C2CCN(CCc3ccc(-c4cc(OC)c(OC)nn4)cc3)CC2)cn2cncc12)C(C)C` [Compound 42, 2-[6-(1-{2-[4-(5,6-dimethoxypyridazin-3-yl)phenyl]ethyl}piperidin-4-yl)imidazo[1,5-a]pyridin-8-yl]-N-ethyl-5-fluoro-N-(isopropyl)benzamide], the IC50 in experiment [1] (168 h) is 26 nM; at Menin-MLL (setting [4]), 3.5 nM; with KG-1a (wild-type MLL), 3300 nM; in experiment [2] it was 3.3 nM.

For the molecule `Cc1nc(F)c2c(-c3ccc(F)cc3C(=O)N3CCOC[C@H]3C)cc(C3CN([C@H](CC[C@H]4CNCCO4)C(C)C)C3)cn12` [Example 244-1, (3R)-4-[5-fluoro-2-(1-fluoro-3-methyl-6-{1-[(3R)-4-methyl-1-[(2S)-morpholin-2-yl]pentan-3-yl]azacyclobutan-3-yl}imidazo[1,5-a]pyridin-8yl)benzoyl]-3-methylmorpholine], the half-maximal inhibitory concentration (IC50) in experiment [1] (168 h) amounted to 39 nM; on Menin-MLL (setting [4]), 9.5 nM; in the experiment on KG-1a (wild-type MLL), 20000 nM; in experiment [2] it was 16 nM.

In the case of `CCN(C(=O)c1cc(F)ccc1-c1cc([C@@H]2CCN(C[C@H]3CC[C@H](NS(=O)(=O)CC)CC3)C2)cc2cncn12)C(C)C` [Example 25-1, N-ethyl-5-fluoro-N-isopropyl-2-{7-[(3S)-1-{[(1r,4r)-4-ethanesulfonamidocyclohexyl]methyl}pyrrolidin-3-yl]imidazo[1,5-a]pyridin-5-yl}benzamide], the IC50 amounted to 5.7 nM on Menin-MLL (setting [3]), 12600 nM with KG-1a (wild-type MLL) and 4.7 nM in experiment [2].

`CCN(C(=O)c1cc(F)ccc1-c1cc(C2=CCC(NCc3ccc(-c4cc(OC)c(OC)nn4)cc3)CC2)cn2cncc12)C(C)C` (stereo not drawn) [Example 17]: the half-inhibitory concentration (IC50) at Menin-MLL (setting [4]) is 9.5 nM; in the experiment on KG-1a (wild-type MLL), 20000 nM; in experiment [2], 17 nM.
